Source: patent US20240238425A1, “HSD17B13 Inhibitors and/or Degraders” (Pfizer Inc., priority 2022, published 2024)
Structures can show the parent of a compound that is named as a salt.

Test system: HiBiT-HSD17β13 fusion protein (N-terminal HiBiT-tagged HSD17β13 isoform D) in Huh7 HiBiT-HSD17β13 OE cells
Experiment: Whole-cell Huh7-HSD17B13 HiBiT assay (degrader potency and maximal efficacy, luminescence readout)
Assay type: cell-based, human
Conditions: 24 hour incubation, geometric mean, * = geometric mean for all forms tested (parent and salt forms); for DC50: read-out: Huh7_HIBIT-HSD17β13_DC50 GMean DC50; for Huh7_HIBIT-HSD17β13_DC50 GMean Asymptote Maximum: max. concentration 1 μM
Summary of the method: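 Luminescence from lytic HiBiT detection tracked residual HiBiT-HSD17β13 (isoform D, N-terminal tag) in a stable Huh7 overexpressing clone after 24 h compound treatment at 37° C, 11 concentrations up to 1 μM final. Percent effect used DMSO (zero) and parental Huh7 (high) wells; four-parameter fit gave 50% degradation; viability checked by CellTiter-Glo.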

Row | SMILES | DC50 [nM] | Huh7_HIBIT-HSD17β13_DC50 GMean Asymptote Maximum [%]
1 | Cn1c(=O)n(C2CCC(=O)NC2=O)c2ccc(CCCN3CCc4cc(-c5ccc6cn([C@H]7CC[C@H](CNC(=O)c8cc(F)c(O)c(F)c8F)CC7)nc6c5)ncc4C3)cc21 (mixture of isomers) [Example 88, N-{[(1r,4r)-4-{6-[7-(3-{1-[(3RS)-2,6-dioxopiperidin-3-yl]-3-methyl-2-oxo-2,3-dihydro-1H-benzimidazol-5-yl}propyl)-5,6,7,8-tetrahydro-2,7-naphthyridin-3-yl]-2H-indazol-2-yl}cyclohexyl]methyl}-2,3,5-trifluoro-4-hydroxybenzamide] | 1.5 | 81
2 | Cn1c(=O)n(C2CCC(=O)NC2=O)c2ccc(CCCN3CCN(c4cc5cn([C@H]6CC[C@H](CNC(=O)c7cc(F)c(O)c(F)c7F)CC6)nc5cn4)CC3)cc21 (mixture of isomers) [Example 93, N-{[(1r,4r)-4-{5-[4-(3-{1-[(3RS)-2,6-dioxopiperidin-3-yl]-3-methyl-2-oxo-2,3-dihydro-1H-benzimidazol-5-yl}propyl)piperazin-1-yl]-2H-pyrazolo[3,4-c]pyridin-2-yl}cyclohexyl]methyl}-2,3,5-trifluoro-4-hydroxybenzamide, formate salt] | 0.69 | 83
3 | Cn1c(=O)n(C2CCC(=O)NC2=O)c2ccc(CCCN3CCOC4(C3)CN(c3ccc5cn([C@H]6CC[C@H](CNC(=O)c7cc(F)c(O)c(F)c7F)CC6)nc5c3)C4)cc21 (mixture of isomers) [Example 98, N-{[(1r,4r)-4-{6-[8-(3-{1-[(3RS)-2,6-dioxopiperidin-3-yl]-3-methyl-2-oxo-2,3-dihydro-1H-benzimidazol-5-yl}propyl)-5-oxa-2,8-diazaspiro[3.5]nonan-2-yl]-2H-indazol-2-yl}cyclohexyl]methyl}-2,3,5-trifluoro-4-hydroxybenzamide, trifluoroacetate salt] | 0.82 | 78

Now those with a lower DC50, led by results:

Row | DC50 [nM] | SMILES | Huh7_HIBIT-HSD17β13_DC50 GMean Asymptote Maximum [%]
4 | 0.4 | Cn1c(=O)n(C2CCC(=O)NC2=O)c2ccc(CCCN3CCN(c4ccc(-c5ccc6cn([C@H]7CC[C@H](CNC(=O)c8cc(F)c(O)c(F)c8F)CC7)nc6c5)cn4)CC3)cc21 (mixture of isomers) [Example 92, N-{[(1r,4r)-4-(6-{6-[4-(3-{1-[(3RS)-2,6-dioxopiperidin-3-yl]-3-methyl-2-oxo-2,3-dihydro-1H-benzimidazol-5-yl}propyl)piperazin-1-yl]pyridin-3-yl}-2H-indazol-2-yl)cyclohexyl]methyl}-2,3,5-trifluoro-4-hydroxybenzamide] | 87
5 | 0.21 | Cn1c(=O)n(C2CCC(=O)NC2=O)c2ccc(CCCN3CCN(c4ccc5cn([C@]67CC[C@](CNC(=O)c8cc(F)c(O)c(F)c8F)(CC6)CC7)nc5c4)CC3)cc21 (mixture of isomers) [Example 94, N-[(4-{6-[4-(3-{1-[(3RS)-2,6-dioxopiperidin-3-yl]-3-methyl-2-oxo-2,3-dihydro-1H-benzimidazol-5-yl}propyl)piperazin-1-yl]-2H-indazol-2-yl}bicyclo[2.2.2]octan-1-yl)methyl]-2,3,5-trifluoro-4-hydroxybenzamide] | 84
6 | 0.24 | Cn1c(=O)n(C2CCC(=O)NC2=O)c2ccc(CCCN3CCN(c4ncc(-c5ccc6cn([C@]78CC[C@](CNC(=O)c9cc(F)c(O)c(F)c9F)(CC7)CC8)nc6c5)cn4)CC3)cc21 (mixture of isomers) [Example 95, N-{[4-(6-{2-[4-(3-{1-[(3RS)-2,6-dioxopiperidin-3-yl]-3-methyl-2-oxo-2,3-dihydro-1H-benzimidazol-5-yl}propyl)piperazin-1-yl]pyrimidin-5-yl}-2H-indazol-2-yl)bicyclo[2.2.2]octan-1-yl]methyl}-2,3,5-trifluoro-4-hydroxybenzamide, trifluoroacetate salt] | 80
